Experimental data published in patent publication US20220117972A1, “USE OF PPAR-DELTA AGONISTS IN THE TREATMENT OF MITOCHONDRIAL MYOPATHY” (Reneo Pharmaceuticals, Inc., priority 2019, published 2022).
Positions count from the first letter of the chain named.

How the values were obtained:
LXRα = target: T1, LXRα (Homo sapiens, UniProt Q13133); test: nuclear receptor LXRα activity; assay type: cell-based
T1 sequence (Q13133 1-447): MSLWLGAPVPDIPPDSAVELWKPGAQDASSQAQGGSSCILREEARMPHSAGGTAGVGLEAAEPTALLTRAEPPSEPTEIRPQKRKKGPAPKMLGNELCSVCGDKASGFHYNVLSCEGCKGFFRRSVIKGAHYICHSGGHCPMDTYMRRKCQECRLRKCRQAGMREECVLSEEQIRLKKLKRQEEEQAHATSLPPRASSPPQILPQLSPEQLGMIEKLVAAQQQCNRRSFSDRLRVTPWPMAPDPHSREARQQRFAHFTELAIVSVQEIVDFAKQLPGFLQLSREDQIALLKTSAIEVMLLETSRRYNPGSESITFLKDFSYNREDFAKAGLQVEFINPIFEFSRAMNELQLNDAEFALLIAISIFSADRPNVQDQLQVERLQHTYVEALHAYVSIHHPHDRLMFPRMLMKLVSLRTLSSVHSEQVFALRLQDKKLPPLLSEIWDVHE

PPARα = target: T2, PPARα (Mus musculus, UniProt P23204); test: PPAR receptor transactivation assay, mouse PPARα; assay type: cell-based
T2 construct: expressed in transfected cells; host or cells: Jump-In GripTite HEK293
T2 sequence (P23204 239-466 limits assumed): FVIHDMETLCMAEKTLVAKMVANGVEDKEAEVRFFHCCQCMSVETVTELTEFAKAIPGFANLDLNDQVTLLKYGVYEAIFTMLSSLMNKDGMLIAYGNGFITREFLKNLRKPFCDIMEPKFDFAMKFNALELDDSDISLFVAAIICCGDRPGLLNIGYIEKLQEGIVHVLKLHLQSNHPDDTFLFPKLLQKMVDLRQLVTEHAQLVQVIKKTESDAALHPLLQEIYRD

PPARγ [1] = target: T3, PPARγ (Macaca mulatta, UniProt O18924); test: PPAR receptor transactivation assay, monkey PPARγ; assay type: cell-based
T3 construct: expressed in transfected cells; host or cells: Jump-In GripTite HEK293
T3 sequence (O18924 238-503 limits assumed): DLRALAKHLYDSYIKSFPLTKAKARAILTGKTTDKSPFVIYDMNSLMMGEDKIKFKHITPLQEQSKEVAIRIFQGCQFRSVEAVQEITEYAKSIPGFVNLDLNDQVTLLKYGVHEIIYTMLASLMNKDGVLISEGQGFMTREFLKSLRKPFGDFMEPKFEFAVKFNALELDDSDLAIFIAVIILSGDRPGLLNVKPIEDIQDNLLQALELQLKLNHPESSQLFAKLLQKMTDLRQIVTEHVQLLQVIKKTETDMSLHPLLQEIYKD
Procedure: (§1) The genes of interest were synthesized and cloned into an appropriate Jump-In™ retargeting vector following the User Guide of the Jump-In™ T-REx™ HEK293 Retargeting Kit (ThermoFisher Catalog No A15008). For example, the vector will be used to transfect and retarget the Jump-In™ HEK293 GripTite™ parental cell line. Stable pools will be antibiotic-selected for about 21 days and tested for target gene expression by functional assay.
(§2) Jump-In™ GripTite™ HEK293 parental cells were plated at 60-80% confluency in a T-75 flask in growth medium without antibiotics and transfected with a 1:1 ratio of expression construct and R4 integrase expression construct (20 μg DNA total) using Lipofectamine® LTX (50 μL) and PLUS™ Reagent (20 μL). Following a 48 hours incubation, cells were selected with 600 μg/mL Geneticin® and 10 μg/mL Blasticidin for ˜21 days in growth medium.
Jump-In™ GripTite™ HEK293 rPPAR Alpha, Delta or Gamma UAS-bla-Gal4 cell pools were plated in a 384-well plate format (20,000 cells per well) in OptiMeM without FBS in replicates (n=4). […] After 16 hours, the cells were loaded with LiveBLAzer®, a fluorescent BLA substrate that gives a blue/green readout of expressing/non-expressing cells, respectively. The blue/green readout was measured on a fluorescent plate reader (Tecan Safire II).

hPPARγ = target: T4, hPPARγ (Homo sapiens, UniProt P37231); test: PPAR receptor transactivation assay, human PPARγ; assay type: cell-based
T4 construct: expressed in transfected cells; host or cells: Jump-In GripTite HEK293
T4 sequence (P37231 238-503 limits assumed): T3 sequence (O18924 238-503 limits assumed)
Procedure: (§3) Compound 1 was tested on all three human PPAR subtypes (hPPAR): hPPARα, hPPARγ, and hPPARδ. All assays were repeated at least three times for each subtype.
as §1, §2
(§4) Jump-In™ GripTite™ HEK293 rPPAR Alpha, Delta or Gamma UAS-bla-Gal4 cell pools were plated in a 384-well plate format (20,000 cells per well) in OptiMeM without FBS in replicates (n=4). Cells were allowed to adhere for 8 hours before addition of Compound 1 (1 mM top concentration, 3-fold dilutions, 10-point titration). After 16 hours, the cells were loaded with LiveBLAzer®, a fluorescent BLA substrate that gives a blue/green readout of expressing/non-expressing cells, respectively. The blue/green readout was measured on a fluorescent plate reader (Tecan Safire II).

hPPARδ = target: T5, hPPARδ (Homo sapiens, UniProt Q03181); test: PPAR receptor transactivation assay, human PPARδ; assay type: cell-based
T5 construct: expressed in transfected cells; host or cells: Jump-In GripTite HEK293
T5 sequence (Q03181 211-439 limits assumed): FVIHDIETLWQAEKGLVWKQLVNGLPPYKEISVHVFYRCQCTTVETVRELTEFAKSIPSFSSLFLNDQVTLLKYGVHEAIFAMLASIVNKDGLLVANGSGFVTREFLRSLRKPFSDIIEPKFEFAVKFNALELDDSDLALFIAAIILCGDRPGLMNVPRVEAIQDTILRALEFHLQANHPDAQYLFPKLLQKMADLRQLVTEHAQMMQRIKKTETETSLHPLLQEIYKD
Procedure: as §3, §1, §2, §4

PPARγ [2] = target: T6, PPARγ (Mus musculus, UniProt P37238); test: PPAR receptor transactivation assay, mouse PPARγ; assay type: cell-based
T6 construct: expressed in transfected cells; host or cells: Jump-In GripTite HEK293
T6 sequence (P37238 238-503 limits assumed): T3 sequence (O18924 238-503 limits assumed) with S93N, V98I, S146N, L226V, Q245H

[3] = tested on: PPARδ regulated genes (CPT1b, PDK4, PGC-1α); test: in vivo gene expression in mouse muscle, 7-day study; conditions: male C57BL/6 mice, oral 30 mg/kg once daily 7 days, quadriceps muscle 4 h after final dose
Procedure: Male C57BL/6 mice were administered an oral dose of Compound 1 at 30 mg/kg, once daily for 7 consecutive days. Four hours following the final dose administration on day 7, all mice were euthanized, and two samples of quadriceps muscle were dissected from the right and left limbs.

Q: For `Cc1cc(OC/C=C(/c2ccc(F)cc2)c2ccc(C#CCN3CCOCC3)cc2)ccc1OCC(=O)O` [Compound 1, (E)-[4-[3-(4-Fluorophenyl)-3-[4-[3-(morpholin-4-yl)propynyl]phenyl]allyloxy]-2-methyl-phenoxy]acetic acid], which “activity on the nuclear receptor LXRα” value (LXRα) is on record?
A: did not show any

Q: And the EC50 (PPARα)?
A: > 10000 nM

Q: What about the EC50 (PPARγ [1]) of the same compound?
A: > 1000 nM

Q: What about the EC50 (hPPARγ; Human PPARγ) of the same compound?
A: > 10000 nM

Q: What about the “activity on PPARγ in transactivation assays” value (hPPARγ; in some cases) of the same compound?
A: negligible activity

Q: And the “agonist type at PPARγ” value (hPPARγ; in some cases)?
A: partial agonist

Q: What about the EC50 (hPPARδ; Human PPARδ) of the same compound?
A: 31 nM

Q: And the “selectivity for PPARδ over PPARα and PPARγ” value (hPPARδ; in humans, monkey, and mouse)?
A: significantly greater selectivity

Q: What about the “agonist type at PPARδ” value (hPPARδ; in some cases) of the same compound?
A: full agonist

Q: What about the EC50 (PPARγ [2]) of the same compound?
A: > 10000 nM

Q: What about the “expression patterns of PPARδ regulated genes (CPT1b, PDK4, PGC-1α)” value [3] of the same compound?
A: altered the expression patterns
